Source: ChEMBL document CHEMBL5331051, “Cationic, amphipathic small molecules based on a triazine-piperazine-triazine scaffold as a new class of antimicrobial agents” (Eur J Med Chem, 2022)
Values after ≈ are worked out from the molar mass of the structure shown. Active and inactive are the calls of the source. No cut-off for these calls is given here.

Legend:
Staphylococcus aureus [1] = assay: Additive antibacterial activity against multidrug-resistant Staphylococcus aureus CCARM 3089 strain assessed as oxacillin fractional inhibitory concentration by checkerboard assay; assay type: functional
Staphylococcus aureus [2] = assay: Synergistic antibacterial activity against methicillin-resistant Staphylococcus aureus CCARM 3089 strain assessed as bacterial growth inhibition in presence of oxacillin by checkerboard assay; assay type: functional
Staphylococcus aureus [3] = assay: Antibacterial activity against Staphylococcus aureus KCTC 1621 strain assessed as bacterial growth inhibition measured at 18 to 24 hrs by microdilution assay; assay type: functional; settings: time 18-24 hrs
Erythrocyte = assay: Hemolytic activity in sheep RBC assessed as minimal hemolytic concentration causing 10% hemolysis incubated for 1 hr by ELISA; assay type: toxicity, cell-based, Ovis aries
Pseudomonas aeruginosa [4] = assay: Synergistic antibacterial activity against multidrug-resistant Pseudomonas aeruginosa CCARM 2095 strain assessed as bacterial growth inhibition in presence of ciprofloxacin by checkerboard assay; assay type: functional
Escherichia coli [5] = assay: Antibacterial activity against Escherichia coli KCTC 1682 strain assessed as bacterial growth inhibition measured at 18 to 24 hrs in presence of 4 uM FeCl3 by microdilution assay; assay type: functional; settings: time 18-24 hrs
Cell membrane = assay: Induction of cell membrane depolarization in Staphylococcus aureus assessed as fluorescence intensity at 2 to 16 times MIC by DiSC3(5) dye based fluorescence assay; assay type: subcellular
RAW264.7 = assay: Antiinflammatory activity in LPS-induced mouse RAW264.7 cells assessed as reduction in TNF alpha mRNA expression level at 20 ug/ml measured after 18 hrs by RT-PCR assay relative to control; assay type: functional, cell-based; settings: dose 20.0 µg/ml
Staphylococcus aureus [6] = assay: Additive antibacterial activity against multidrug-resistant Staphylococcus aureus CCARM 3089 strain assessed as fractional inhibitory concentration index in presence of oxacillin by checkerboard assay; assay type: functional
Pseudomonas aeruginosa [7] = assay: Synergistic antibacterial activity against multidrug-resistant Pseudomonas aeruginosa CCARM 2095 strain assessed as ciprofloxacin fractional inhibitory concentration by checkerboard assay; assay type: functional
Pseudomonas aeruginosa [8] = assay: Synergistic antibacterial activity against multidrug-resistant Pseudomonas aeruginosa CCARM 2095 strain assessed as chloramphenicol fractional inhibitory concentration in presence of chloramphenicol by checkerboard assay; assay type: functional
Pseudomonas aeruginosa [9] = assay: Synergistic antibacterial activity against multidrug-resistant Pseudomonas aeruginosa CCARM 2095 strain assessed as fractional inhibitory concentration index in presence of oxacillin by checkerboard assay; assay type: functional
Pseudomonas aeruginosa [10] = assay: Synergistic antibacterial activity against multidrug-resistant Pseudomonas aeruginosa CCARM 2095 strain assessed as oxacillin fractional inhibitory concentration in presence of oxacillin by checkerboard assay; assay type: functional
Escherichia coli [11] = assay: Antibacterial activity against Escherichia coli KCTC 1682 strain assessed as bacterial growth inhibition measured at 18 to 24 hrs in presence of 6 uM NH4Cl by microdilution assay; assay type: functional; settings: time 18-24 hrs
[12] = tested on: Staphylococcus epidermidis; assay: Antibacterial activity against Staphylococcus epidermidis KCTC 1917 strain assessed as bacterial growth inhibition measured at 18 to 24 hrs by microdilution assay; assay type: functional; settings: time 18-24 hrs
Staphylococcus aureus [13] = assay: Antibacterial activity against Staphylococcus aureus KCTC 1621 strain assessed as bacterial growth inhibition measured at 18 to 24 hrs in presence of 2.5 mM CaCl2 by microdilution assay; assay type: functional; settings: time 18-24 hrs
Lipopolysaccharide (LPS) [14] = assay: Displacement of BODIPY-TR-cadaverine from Escherichia coli O111:B4 lipopolysaccharide assessed as increase in fluorescence at 5 ug/ml by fluorescence based assay relative to control; settings: dose 5.0 µg/ml
Escherichia coli [15] = assay: Antibacterial activity against Escherichia coli KCTC 1682 strain assessed as bacterial growth inhibition measured after 6 hrs in presence of proteinase K by radial diffusion assay; assay type: functional, organism-based
Escherichia coli [16] = assay: Antibacterial activity against Escherichia coli KCTC 1682 strain assessed as bacterial growth inhibition measured after 6 hrs in presence of trypsin by radial diffusion assay; assay type: functional, organism-based
Staphylococcus aureus [17] = assay: Antibacterial activity against methicillin-resistant Staphylococcus aureus CCARM 3089 strain assessed as bacterial growth inhibition by checkerboard assay; assay type: functional
Staphylococcus aureus [18] = assay: Synergistic antibacterial activity against multidrug-resistant Staphylococcus aureus CCARM 3089 strain assessed as oxacillin fractional inhibitory concentration by checkerboard assay; assay type: functional
Lipopolysaccharide (LPS) [19] = assay: Binding affinity to Escherichia coli O111:B4 lipopolysaccharide assessed as suppression of FTIC labeled LPS binding to mouse RAW264.7 cells at 20 ug/ml pretreated with LPS followed by compound addition by flow cytometer assay (reference value: 67.4%); assay type: cell-based; settings: dose 20.0 µg/ml
Pseudomonas aeruginosa [20] = assay: Antibiofilm activity against multidrug-resistant Pseudomonas aeruginosa assessed as biofilm eradication; assay type: functional
Staphylococcus aureus [21] = assay: Antibacterial activity against Staphylococcus aureus KCTC 1621 strain assessed as bacterial growth inhibition measured at 18 to 24 hrs in presence of 4.5 mM KCl by microdilution assay; assay type: functional; settings: time 18-24 hrs
Escherichia coli [22] = assay: Antibacterial activity against Escherichia coli KCTC 1682 strain assessed as bacterial growth inhibition measured at 18 to 24 hrs in presence of 4.5 mM KCl by microdilution assay; assay type: functional; settings: time 18-24 hrs
Pseudomonas aeruginosa [23] = assay: Synergistic antibacterial activity against multidrug-resistant Pseudomonas aeruginosa CCARM 2095 strain assessed as fractional inhibitory concentration index in presence of ciprofloxacin by checkerboard assay; assay type: functional
Escherichia coli [24] = assay: Antibacterial activity against Escherichia coli KCTC 1682 strain assessed as bacterial growth inhibition measured at 18 to 24 hrs by microdilution assay; assay type: functional; settings: time 18-24 hrs
Pseudomonas aeruginosa [25] = assay: Synergistic antibacterial activity against multidrug-resistant Pseudomonas aeruginosa CCARM 2095 strain assessed as oxacillin fractional inhibitory concentration by checkerboard assay; assay type: functional
Pseudomonas aeruginosa [26] = assay: Synergistic antibacterial activity against multidrug-resistant Pseudomonas aeruginosa CCARM 2095 strain assessed as ciprofloxacin MIC by checkerboard assay; assay type: functional
Staphylococcus aureus [27] = assay: Synergistic antibacterial activity against methicillin-resistant Staphylococcus aureus CCARM 3089 strain assessed as bacterial growth inhibition in presence of ciprofloxacin by checkerboard assay; assay type: functional
Pseudomonas aeruginosa [28] = assay: Synergistic antibacterial activity against multidrug-resistant Pseudomonas aeruginosa CCARM 2095 strain assessed as fractional inhibitory concentration index in presence of chloramphenicol by checkerboard assay; assay type: functional
Pseudomonas aeruginosa [29] = assay: Antibiofilm activity against multidrug-resistant Pseudomonas aeruginosa assessed as inhibition of biofilm formation; assay type: functional
Lipopolysaccharide (LPS) [30] = assay: Binding affinity to Escherichia coli O111:B4 lipopolysaccharide assessed as suppression of FTIC labeled LPS binding to mouse RAW264.7 cells at 20 ug/ml pretreated LPS with cells for 1 hr followed by compound addition measured after 1 hr by flow cytometer assay (reference value: 48.12%); assay type: cell-based; settings: dose 20.0 µg/ml
Escherichia coli [31] = assay: Antibacterial activity against Escherichia coli KCTC 1682 strain assessed as bacterial growth inhibition measured after 6 hrs in presence of chymotrypsin by radial diffusion assay; assay type: functional, organism-based
Pseudomonas aeruginosa [32] = assay: Antibacterial activity against Pseudomonas aeruginosa KCTC 1637 strain assessed as bacterial growth inhibition measured at 18 to 24 hrs by microdilution assay; assay type: functional; settings: time 18-24 hrs
Staphylococcus aureus [33] = assay: Synergistic antibacterial activity against multidrug-resistant Staphylococcus aureus CCARM 3089 strain assessed as fractional inhibitory concentration index in presence of oxacillin by checkerboard assay; assay type: functional
Staphylococcus aureus [34] = assay: Synergistic antibacterial activity against methicillin-resistant Staphylococcus aureus CCARM 3089 strain assessed as fractional inhibitory concentration in presence of ciprofloxacin by checkerboard assay; assay type: functional

NCCN(CCN)c1nc(NCc2ccccc2)nc(N2CC(Cc3ccccc3)N(c3nc(NCc4ccccc4)nc(N(CCN)CCN)n3)CC2Cc2ccccc2)n1 (stereo unspecified)
FIC (Staphylococcus aureus [1]): 0.25 | MIC (Staphylococcus aureus [2]): 1 µg/mL | MIC (Staphylococcus aureus [3]): 5.4 µM (≈ 4.52 µg/mL) | MHC (Erythrocyte): > 342.5 µM | MIC (Pseudomonas aeruginosa [4]): 2 µg/mL | MIC (Escherichia coli [5]): 10.8 µM | Activity (Cell membrane): inactive | Activity (RAW264.7): Active | fractional inhibitory concentration index (FICI) (Staphylococcus aureus [6]): 0.5 | FIC (Pseudomonas aeruginosa [7]): 0.25 | FIC (Pseudomonas aeruginosa [8]): 0.25 | fractional inhibitory concentration index (FICI) (Pseudomonas aeruginosa [9]): 0.375 | FIC (Pseudomonas aeruginosa [10]): 0.25 | MIC (Escherichia coli [11]): 5.4 µM | MIC [12]: 2.7 µM (≈ 2.26 µg/mL) | MIC (Staphylococcus aureus [13]): 5.4 µM | Activity (Lipopolysaccharide (LPS) [14]): 75% | Activity (Escherichia coli [15]): Active | Activity (Escherichia coli [16]): Active | MIC (Staphylococcus aureus [17]): 4 µg/mL | FIC (Staphylococcus aureus [18]): 0.25 | Flu intensity (Lipopolysaccharide (LPS) [19]): 8% | MBEC50 (Pseudomonas aeruginosa [20]): 10.4 µM | MBEC90 (Pseudomonas aeruginosa [20]): 10.4 µM | MIC (Staphylococcus aureus [21]): 5.4 µM | MIC (Escherichia coli [22]): 5.4 µM | fractional inhibitory concentration index (FICI) (Pseudomonas aeruginosa [23]): 0.375 | MIC (Escherichia coli [24]): 5.4 µM (≈ 4.52 µg/mL) | FIC (Pseudomonas aeruginosa [25]): 0.125 | MIC (Pseudomonas aeruginosa [26]): 256 µg/mL | MIC (Staphylococcus aureus [27]): 1 µg/mL | fractional inhibitory concentration index (FICI) (Pseudomonas aeruginosa [28]): 0.5 | MBEC50 (Pseudomonas aeruginosa [29]): 10.4 µM | MBEC90 (Pseudomonas aeruginosa [29]): 10.4 µM | MBIC (Pseudomonas aeruginosa [29]): 5.2 µM | MBIC50 (Pseudomonas aeruginosa [29]): 1.3 µM | Flu intensity (Lipopolysaccharide (LPS) [30]): 16.4% | Activity (Escherichia coli [31]): Active | MIC (Pseudomonas aeruginosa [32]): 5.4 µM (≈ 4.52 µg/mL) | fractional inhibitory concentration index (FICI) (Staphylococcus aureus [33]): 0.5 | FIC (Staphylococcus aureus [34]): 0.25
